According to ChEMBL document CHEMBL4043207, “Discovery of a novel, CNS penetrant M4 PAM chemotype based on a 6-fluoro-4-(piperidin-1-yl)quinoline-3-carbonitrile core” (Bioorg Med Chem Lett, 2017):

How the values were obtained:
[1] = target: T1, Muscarinic acetylcholine receptor M4 (Homo sapiens, UniProt P08173); test: Positive allosteric modulation of human M4 receptor expressed in CHO cells co-expressing Gqi5 assessed as increase in acetylcholine-induced calcium mobilization; format: functional, cell-based
T1 sequence (P08173 whole entry): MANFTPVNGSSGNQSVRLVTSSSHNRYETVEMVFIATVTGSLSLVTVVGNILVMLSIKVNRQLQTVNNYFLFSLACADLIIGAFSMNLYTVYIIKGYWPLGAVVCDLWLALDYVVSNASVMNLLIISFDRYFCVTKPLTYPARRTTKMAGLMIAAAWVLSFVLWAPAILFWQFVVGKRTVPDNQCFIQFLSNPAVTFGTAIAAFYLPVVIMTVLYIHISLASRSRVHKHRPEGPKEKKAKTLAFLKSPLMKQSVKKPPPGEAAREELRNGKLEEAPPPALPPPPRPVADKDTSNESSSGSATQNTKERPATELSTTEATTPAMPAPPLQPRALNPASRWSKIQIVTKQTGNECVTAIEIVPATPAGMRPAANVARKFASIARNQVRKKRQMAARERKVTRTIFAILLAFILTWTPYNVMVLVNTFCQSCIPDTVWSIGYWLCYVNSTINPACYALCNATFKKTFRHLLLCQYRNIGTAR

[2] = target: T2, Muscarinic acetylcholine receptor M4 (Homo sapiens) (UniProt P08173); test: Positive allosteric modulation of human M4 receptor expressed in CHO cells co-expressing Gqi5 assessed as increase in acetylcholine-induced calcium mobilization relative to acetylcholine; format: functional, cell-based
T2 sequence (whole entry): T1 sequence (P08173 whole entry)

Plasma = test: (§1) Fraction unbound in human plasma; format: ADME, cell-free
[3] = Fraction unbound in rat plasma; format: ADME, cell-free
[4] = Clearance in rat hepatocytes; format: ADME, cell-based, Hepatocyte
[5] = Clearance in human hepatocytes; format: ADME, cell-based, Hepatocyte
[6] = Fraction unbound in rat brain; format: ADME, tissue-based
[7] = Brain to plasma permeability coefficient, Kp of the compound in Sprague-Dawley rat at 0.1 to 0.2 mg/kg, iv administered as cassette dose after 25 mins; format: ADME, organism-based; details: brain and plasma
[8] = Ratio of unbound concentration in brain to plasma in Sprague-Dawley rat at 0.1 to 0.2 mg/kg, iv administered as cassette dose after 25 mins; format: ADME, organism-based; details: brain and plasma, read-out: K(p,uu,brain)
[9] = as §1; format: ADME, cell-free

Row | SMILES | EC50 ([1]; read-out: EC50) | Emax [2] | EC50 ([1]; read-out: pEC50 (converted)) | other results
1 | Cn1nccc1NC(=O)C1CCN(c2c(C#N)cnc3ccc(F)cc23)CC1 | 1760 nM | 81% | 1660 nM | –
2 | N#Cc1cnc2ccc(F)cc2c1N1CCC(Oc2ccc(Cl)nc2)CC1 | 577 nM | 80% | 562 nM | –
3 | COc1ccccc1CNC(=O)C1CCN(c2c(C#N)cnc3ccc(F)cc23)CC1 | 651 nM | 48% | 589 nM | –
4 | N#Cc1cnc2ccc(F)cc2c1N1CCC(Oc2ccccc2)CC1 | 3260 nM | 81% | – | –
5 | N#Cc1cnc2ccc(F)cc2c1N1CCC(C(=O)N2CCSCC2)CC1 | 1410 nM | 88% | – | –
6 | Cc1ccc(OC2CCN(c3c(C#N)cnc4ccc(F)cc34)CC2)c(F)n1 | 5640 nM | 53% | 5370 nM | –
7 | Cc1ccc(OC2CCN(c3ncnc4ccc(F)cc34)CC2)cn1 | – | – | – | Fu (Plasma): 0.013; fraction unbound [3]: 0.011; CLhep predicted [4]: 67 mL/min/kg; CLhep predicted [5]: 20 mL/min/kg; fraction unbound [6]: 0.007; Kp at 25 min [7]: 1.16; Kp uu at 25 min [8]: 0.74
8 | N#Cc1cnc2ccc(F)cc2c1N1CCC(C(=O)Nc2cccnc2)CC1 | 619 nM | 68% | – | –

The remaining molecules from weak to strong by EC50 ([1]; read-out: EC50), led by results:

Row | EC50 ([1]; read-out: EC50) | Emax [2] | EC50 ([1]; read-out: pEC50 (converted)) | SMILES | other results
9 | 3020 nM | 67% | 2950 nM | Cc1ccc2ncc(C#N)c(N3CCC(Oc4ccc(C)nc4)CC3)c2c1 | –
10 | 2210 nM | 62% | 2140 nM | Cc1ccc(OC2CCN(c3ccnc4ccc(F)cc34)CC2)cn1 | –
11 | 940 nM | 59% | – | N#Cc1cnc2ccc(F)cc2c1N1CCC(C(=O)Nc2ccncn2)CC1 | –
12 | 912 nM | 44% | 871 nM | N#Cc1cnc2ccc(F)cc2c1N1CCC(C(=O)Nc2ccccn2)CC1 | –
13 | 905 nM | 72% | – | Cc1ccc(OC2CCN(c3c(C#N)cnc4ccc(Cl)cc34)CC2)cn1 | –
14 | 648 nM | 76% | – | COc1ccc2c(c1)CCN(C(=O)C1CCN(c3c(C#N)cnc4ccc(F)cc34)CC1)C2 | fraction unbound [9]: 0.011; fraction unbound [3]: 0.013; CLhep predicted [4]: 64 mL/min/kg; CLhep predicted [5]: 20 mL/min/kg; fraction unbound [6]: 0.007; Kp at 25 min [7]: 1.26; Kp uu at 25 min [8]: 0.68
15 | 223 nM | 93% | 209 nM | Cc1ccc(OC2CCN(c3c(C#N)cnc4c(F)cc(F)cc34)CC2)cn1 | –
